# Measured values as given in patent US20020137929A1, “1 - (3-heterocyclylphenyl) isothiourea, -isourea, -guanidine and -amidine herbicidal agents” (Intellectual Property Department, BASF Aktiengesellschaft, priority 1998, published 2002).
# Key:
# [1] = system: GLXMAW (Soybean, Williams); assay: Postemergence herbicidal evaluation; format: in vivo, Glycine max, (L.) Merr. cv Williams; settings: postemergence
# Procedure, shortened: (§1)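 Each compound, dispersed in an acetone/water mix (50/50) carrying 0.5% TWEEN 20, is nozzle-sprayed at 40 psi on approximately two-week-old seedlings at about 0.0156–0.500 kg/ha. Plants are assessed 4–5 weeks afterward on a 0–9 scale relative to control; duplicate tests are averaged.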
# [2] = system: CHEAL (Lambsquarters, Common); assay: Postemergence herbicidal evaluation; format: in vivo, Chenopodium album; settings: postemergence
# Procedure, shortened: as §1
# CYPSE (Flatsedge) [3] = assay: Postemergence weed control under flooded paddy conditions; format: in vivo, Cyperus serotinus; settings: postemergence weeds, rated 3 to 4 weeks after treatment
# Procedure, shortened: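 Weeds 3 to 5 cm tall and rice seedlings at the 1.5 to 2.5 leaf stage were flooded, with water held 1.5 to 3 cm above the soil. Compounds in 50/50 v/v aqueous/acetone went into the flood water at about 0.0313 to 0.500 kg/ha. Visual 0-9 ratings versus control were made 3 to 4 weeks later.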
# CYPIR (Rice Flatsedge) = assay: Preemergence weed control under flooded paddy conditions; format: in vivo, Cyperus iria; settings: rated 3-4 weeks after treatment
# Procedure, shortened: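 Flooded-pot preemergence screen with silt loam and seeds in the upper 0.5 cm. Dose about 0.0313 to 0.500 kg/ha, delivered into flood water; visual 0-9 score after 3 to 4 weeks.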
# SETVI (Foxtail, Green) = assay: Postemergence herbicidal evaluation; format: in vivo, Setaria viridis; settings: postemergence
# Procedure, shortened: as §1
# AMBEL (Ragweed, Common) = assay: Postemergence herbicidal evaluation; format: in vivo, Ambrosia artemisifolia; settings: postemergence
# Procedure, shortened: as §1
# ORYSAT (Rice, Tebonnet) = assay: Postemergence herbicidal evaluation; format: in vivo, Oryza sativa, (L.) Tebonnet; settings: postemergence
# Procedure, shortened: as §1
# [4] = system: SAGPY (Arrowhead (Pygmaea)); assay: Preemergence weed control under flooded paddy conditions; format: in vivo, Sagittaria pygmaea; settings: rated 3-4 weeks after treatment
# Procedure, shortened: (§2)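 Seeds or propagules sown in top 0.5 cm of silt loam soil, flooded 1.5 to 3 cm above surface throughout. Compound in 50/50 v/v aqueous/acetone pipetted into flood water at about 0.0313 to 0.500 kg/ha. Visual 0-9 rating versus control after three to four weeks in greenhouse.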
# GALAP (Galium) [5] = assay: Postemergence herbicidal evaluation; format: in vivo, Galium aparine; settings: postemergence
# Procedure, shortened: as §1
# GALAP (Galium) [6] = assay: Preemergence herbicidal evaluation; format: in vivo, Galium aparine; settings: preemergence, rated 4-5 weeks after treatment, 0-9 scale
# Procedure, shortened: (§3)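 Seeds were planted in potting soil in cups, then sprayed preemergence with the test compound in aqueous acetone at about 0.0156 to 0.500 kg per hectare. Cups were kept under greenhouse conditions and visually rated 4–5 weeks after treatment on a 0–9 scale against an untreated control.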
# CASOB (Sicklepod) [7] = assay: Preemergence herbicidal evaluation; format: in vivo, Cassia obtusifolia; settings: preemergence, rated 4-5 weeks after treatment, 0-9 scale
# Procedure, shortened: as §3
# ZEAMX (Corn, Field) = assay: Preemergence herbicidal evaluation; format: in vivo, Zea mays; settings: preemergence, rated 4-5 weeks after treatment, 0-9 scale
# Procedure, shortened: as §3
# CASOB (Sicklepod) [8] = assay: Postemergence herbicidal evaluation; format: in vivo, Cassia obtusifolia; settings: postemergence
# Procedure, shortened: as §1
# ECHCG (Barnyardgrass) = assay: Postemergence herbicidal evaluation; format: in vivo, Echinochloa crus-galli; settings: postemergence
# Procedure, shortened: as §1
# CYPSE (Flatsedge) [9] = assay: Preemergence weed control under flooded paddy conditions; format: in vivo, Cyperus serotinus; settings: rated 3-4 weeks after treatment
# Procedure, shortened: as §2
compound,measurement,setting,value
"C#CCOC(=O)CC1SC(=Nc2cc(-n3c(=O)cc(C(F)(F)F)n(C)c3=O)c(F)cc2Cl)N(C)C1=O (centres unmarked) [Compound 90, 2-Propynyl 2-{{2-chloro-5-[3,6-dihydro-3-methyl-2,6-dioxo-4-(trifluoromethyl)-1(2H)-pyrimidinyl]-4-fluorophenyl}imino}-3-methyl-4-oxo-5-thiazolidineacetate]",GLXMAW herbicidal rating,[1]; rate 0.0158 kg/ha,9.0
same,GLXMAW herbicidal rating,[1]; rate 0.0315 kg/ha,9.0
same,GLXMAW herbicidal rating,[1]; rate 0.0630 kg/ha,9.0
same,CHEAL herbicidal rating,[2]; rate 0.0158 kg/ha,5.0
same,CHEAL herbicidal rating,[2]; rate 0.0315 kg/ha,7.0
same,CHEAL herbicidal rating,[2]; rate 0.0630 kg/ha,9.0
same,Herbicidal rating CYPSE,CYPSE (Flatsedge) [3]; Rate 0.0313 kg/ha,0.0
same,Herbicidal rating CYPSE,CYPSE (Flatsedge) [3]; Rate 0.0625 kg/ha,0.0
same,Herbicidal rating CYPSE,CYPSE (Flatsedge) [3]; Rate 0.1250 kg/ha,0.0
same,Herbicidal rating CYPSE,CYPSE (Flatsedge) [3]; Rate 0.2500 kg/ha,3.0
same,CYPIR herbicidal effect rating,CYPIR (Rice Flatsedge); 0.0313 kg/ha,0.0
same,CYPIR herbicidal effect rating,CYPIR (Rice Flatsedge); 0.0625 kg/ha,0.0
same,CYPIR herbicidal effect rating,CYPIR (Rice Flatsedge); 0.1250 kg/ha,1.0
same,CYPIR herbicidal effect rating,CYPIR (Rice Flatsedge); 0.2500 kg/ha,3.0
same,SETVI herbicidal rating,"SETVI (Foxtail, Green); rate 0.0158 kg/ha",9.0
same,SETVI herbicidal rating,"SETVI (Foxtail, Green); rate 0.0315 kg/ha",9.0
same,SETVI herbicidal rating,"SETVI (Foxtail, Green); rate 0.0630 kg/ha",9.0
same,AMBEL herbicidal rating,"AMBEL (Ragweed, Common); rate 0.0158 kg/ha",9.0
same,AMBEL herbicidal rating,"AMBEL (Ragweed, Common); rate 0.0315 kg/ha",9.0
same,AMBEL herbicidal rating,"AMBEL (Ragweed, Common); rate 0.0630 kg/ha",9.0
same,ORYSAT herbicidal rating,"ORYSAT (Rice, Tebonnet); rate 0.0158 kg/ha",4.0
same,ORYSAT herbicidal rating,"ORYSAT (Rice, Tebonnet); rate 0.0315 kg/ha",6.5
same,ORYSAT herbicidal rating,"ORYSAT (Rice, Tebonnet); rate 0.0630 kg/ha",6.5
same,SAGPY herbicidal effect rating,[4]; 0.0313 kg/ha,4.0
same,SAGPY herbicidal effect rating,[4]; 0.0625 kg/ha,6.0
same,SAGPY herbicidal effect rating,[4]; 0.1250 kg/ha,9.0
same,SAGPY herbicidal effect rating,[4]; 0.2500 kg/ha,9.0
same,GALAP herbicidal rating,GALAP (Galium) [5]; rate 0.0158 kg/ha,5.0
same,GALAP herbicidal rating,GALAP (Galium) [5]; rate 0.0315 kg/ha,7.0
same,GALAP herbicidal rating,GALAP (Galium) [5]; rate 0.0630 kg/ha,7.0
same,GALAP rating,GALAP (Galium) [6]; 0.0313 kg/ha,0.0
same,GALAP rating,GALAP (Galium) [6]; 0.0625 kg/ha,0.0
same,GALAP rating,GALAP (Galium) [6]; 0.1250 kg/ha,3.0
same,GALAP rating,GALAP (Galium) [6]; 0.2500 kg/ha,7.0
same,CASOB rating,CASOB (Sicklepod) [7]; 0.0313 kg/ha,3.0
same,CASOB rating,CASOB (Sicklepod) [7]; 0.0625 kg/ha,9.0
same,CASOB rating,CASOB (Sicklepod) [7]; 0.1250 kg/ha,9.0
same,CASOB rating,CASOB (Sicklepod) [7]; 0.2500 kg/ha,9.0
same,ZEAMX rating,"ZEAMX (Corn, Field); 0.0313 kg/ha",0.0
same,ZEAMX rating,"ZEAMX (Corn, Field); 0.0625 kg/ha",0.0
same,ZEAMX rating,"ZEAMX (Corn, Field); 0.1250 kg/ha",7.0
same,ZEAMX rating,"ZEAMX (Corn, Field); 0.2500 kg/ha",8.0
same,CASOB herbicidal rating,CASOB (Sicklepod) [8]; rate 0.0158 kg/ha,2.0
same,CASOB herbicidal rating,CASOB (Sicklepod) [8]; rate 0.0315 kg/ha,3.0
same,CASOB herbicidal rating,CASOB (Sicklepod) [8]; rate 0.0630 kg/ha,4.0
same,ECHCG herbicidal rating,ECHCG (Barnyardgrass); rate 0.0158 kg/ha,3.0
same,ECHCG herbicidal rating,ECHCG (Barnyardgrass); rate 0.0315 kg/ha,5.0
same,ECHCG herbicidal rating,ECHCG (Barnyardgrass); rate 0.0630 kg/ha,9.0
same,CYPSE herbicidal effect rating,CYPSE (Flatsedge) [9]; 0.0313 kg/ha,0.0
same,CYPSE herbicidal effect rating,CYPSE (Flatsedge) [9]; 0.0625 kg/ha,0.0
same,CYPSE herbicidal effect rating,CYPSE (Flatsedge) [9]; 0.1250 kg/ha,0.0
same,CYPSE herbicidal effect rating,CYPSE (Flatsedge) [9]; 0.2500 kg/ha,3.0
"CN1C(=O)C(CC(=O)Nc2ccccc2)SC1=Nc1cc(-n2c(=O)cc(C(F)(F)F)n(C)c2=O)c(F)cc1Cl (centres unmarked) [Compound 91, 2-{{2-Chloro-5-[3,6-dihydro-3-methyl-2,6-dioxo-4-(trifluoromethyl)-1(2H)-pyrimidinyl]-4-fluorophenyl}imino}-3-methyl-4-oxo-5-thiazolidineacetanilide]",GLXMAW herbicidal rating,[1]; rate 0.0158 kg/ha,4.5
same,GLXMAW herbicidal rating,[1]; rate 0.0315 kg/ha,4.5
same,GLXMAW herbicidal rating,[1]; rate 0.0630 kg/ha,5.5
same,CHEAL herbicidal rating,[2]; rate 0.0158 kg/ha,0.0
same,CHEAL herbicidal rating,[2]; rate 0.0315 kg/ha,3.0
same,CHEAL herbicidal rating,[2]; rate 0.0630 kg/ha,3.0
same,Herbicidal rating CYPSE,CYPSE (Flatsedge) [3]; Rate 0.0313 kg/ha,0.0
same,Herbicidal rating CYPSE,CYPSE (Flatsedge) [3]; Rate 0.0625 kg/ha,0.0
same,Herbicidal rating CYPSE,CYPSE (Flatsedge) [3]; Rate 0.1250 kg/ha,0.0
same,Herbicidal rating CYPSE,CYPSE (Flatsedge) [3]; Rate 0.2500 kg/ha,0.0
same,CYPIR herbicidal effect rating,CYPIR (Rice Flatsedge); 0.0313 kg/ha,0.0
same,CYPIR herbicidal effect rating,CYPIR (Rice Flatsedge); 0.0625 kg/ha,0.0
same,CYPIR herbicidal effect rating,CYPIR (Rice Flatsedge); 0.1250 kg/ha,0.0
same,CYPIR herbicidal effect rating,CYPIR (Rice Flatsedge); 0.2500 kg/ha,0.0
same,SETVI herbicidal rating,"SETVI (Foxtail, Green); rate 0.0158 kg/ha",0.0
same,SETVI herbicidal rating,"SETVI (Foxtail, Green); rate 0.0315 kg/ha",0.0
same,SETVI herbicidal rating,"SETVI (Foxtail, Green); rate 0.0630 kg/ha",0.0
same,AMBEL herbicidal rating,"AMBEL (Ragweed, Common); rate 0.0158 kg/ha",0.0
same,AMBEL herbicidal rating,"AMBEL (Ragweed, Common); rate 0.0315 kg/ha",0.0
same,AMBEL herbicidal rating,"AMBEL (Ragweed, Common); rate 0.0630 kg/ha",4.0
same,ORYSAT herbicidal rating,"ORYSAT (Rice, Tebonnet); rate 0.0158 kg/ha",1.0
same,ORYSAT herbicidal rating,"ORYSAT (Rice, Tebonnet); rate 0.0315 kg/ha",1.0
same,ORYSAT herbicidal rating,"ORYSAT (Rice, Tebonnet); rate 0.0630 kg/ha",2.0
same,SAGPY herbicidal effect rating,[4]; 0.0313 kg/ha,0.0
same,SAGPY herbicidal effect rating,[4]; 0.0625 kg/ha,0.0
same,SAGPY herbicidal effect rating,[4]; 0.1250 kg/ha,0.0
same,SAGPY herbicidal effect rating,[4]; 0.2500 kg/ha,0.0
same,GALAP herbicidal rating,GALAP (Galium) [5]; rate 0.0158 kg/ha,0.0
same,GALAP herbicidal rating,GALAP (Galium) [5]; rate 0.0315 kg/ha,0.0
same,GALAP herbicidal rating,GALAP (Galium) [5]; rate 0.0630 kg/ha,0.0
same,GALAP rating,GALAP (Galium) [6]; 0.1250 kg/ha,0.0
same,GALAP rating,GALAP (Galium) [6]; 0.2500 kg/ha,0.0
same,CASOB rating,CASOB (Sicklepod) [7]; 0.1250 kg/ha,0.0
same,CASOB rating,CASOB (Sicklepod) [7]; 0.2500 kg/ha,0.0
same,ZEAMX rating,"ZEAMX (Corn, Field); 0.1250 kg/ha",0.0
same,ZEAMX rating,"ZEAMX (Corn, Field); 0.2500 kg/ha",0.0
same,CASOB herbicidal rating,CASOB (Sicklepod) [8]; rate 0.0158 kg/ha,0.0
same,CASOB herbicidal rating,CASOB (Sicklepod) [8]; rate 0.0315 kg/ha,0.0
same,CASOB herbicidal rating,CASOB (Sicklepod) [8]; rate 0.0630 kg/ha,4.0
same,ECHCG herbicidal rating,ECHCG (Barnyardgrass); rate 0.0158 kg/ha,0.0
same,ECHCG herbicidal rating,ECHCG (Barnyardgrass); rate 0.0315 kg/ha,0.0
same,ECHCG herbicidal rating,ECHCG (Barnyardgrass); rate 0.0630 kg/ha,0.0
same,CYPSE herbicidal effect rating,CYPSE (Flatsedge) [9]; 0.0313 kg/ha,0.0
same,CYPSE herbicidal effect rating,CYPSE (Flatsedge) [9]; 0.0625 kg/ha,0.0
same,CYPSE herbicidal effect rating,CYPSE (Flatsedge) [9]; 0.1250 kg/ha,0.0
same,CYPSE herbicidal effect rating,CYPSE (Flatsedge) [9]; 0.2500 kg/ha,0.0
